PubChem BioAssay AID256 (DTP/NCI, 2004)
“And” between values parts separate entries of the source, which are not always exact repeats. Identical values can stand only once. Toxic doses and inconclusive results are not listed. How the source made its calls: active means survival T/C of 150% or more; inactive means T/C below 125% in these data.

System: CD2F1 mice, L1210 leukemia ip, survival T/C
Experiment: NCI In Vivo Anticancer Drug Screen. Data for tumor model L1210 Leukemia (intraperitoneal) in CD2F1 (CDF1) mice
Settings: higher = longer survival
Method in brief: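 Vehicle-treated tumor-bearing mice served as controls (C) for compound-treated mice (T). Reported figure is T divided by C.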

[1] = endpoint: mean survival time, dose: 100.0 mg/kg/injection, schedule: Q01DX009 (ip), vehicle: saline with Tween-80
[2] = endpoint: mean survival time, dose: 100.0 mg/kg/injection, schedule: Q04DX003 (ip), vehicle: saline with Tween-80
[3] = endpoint: mean survival time, dose: 200.0 mg/kg/injection, schedule: Q01DX009 (ip), vehicle: saline with Tween-80
[4] = endpoint: mean survival time, dose: 200.0 mg/kg/injection, schedule: Q04DX003 (ip), vehicle: saline with Tween-80
[5] = endpoint: mean survival time, dose: 400.0 mg/kg/injection, schedule: Q04DX003 (ip), vehicle: saline with Tween-80
[6] = endpoint: mean survival time, dose: 100.0 mg/kg/injection, schedule: Q01DX001 (ip), vehicle: saline with Tween-80
[7] = endpoint: mean survival time, dose: 400.0 mg/kg/injection, schedule: Q01DX001 (ip), vehicle: saline with Tween-80
[8] = endpoint: mean survival time, dose: 100.0 mg/kg/injection, schedule: Q04DX002 (ip), vehicle: saline with Tween-80
[9] = endpoint: mean survival time, dose: 200.0 mg/kg/injection, schedule: Q04DX002 (ip), vehicle: saline with Tween-80
[10] = endpoint: mean survival time, dose: 400.0 mg/kg/injection, schedule: Q04DX002 (ip), vehicle: saline with Tween-80
[11] = endpoint: mean survival time, dose: 200.0 mg/kg/injection, schedule: Q01DX001 (ip), vehicle: saline with Tween-80
[12] = endpoint: mean survival time, dose: 12.5 mg/kg/injection, schedule: Q01DX009 (ip), vehicle: saline with Tween-80
[13] = endpoint: mean survival time, dose: 25.0 mg/kg/injection, schedule: Q01DX009 (ip), vehicle: saline with Tween-80
[14] = endpoint: mean survival time, dose: 50.0 mg/kg/injection, schedule: Q01DX009 (ip), vehicle: saline with Tween-80
[15] = endpoint: mean survival time, dose: 100.0 mg/kg/injection, schedule: Q01DX001 (ip), vehicle: saline
[16] = endpoint: mean survival time, dose: 200.0 mg/kg/injection, schedule: Q01DX001 (ip), vehicle: saline
[17] = endpoint: mean survival time, dose: 100.0 mg/kg/injection, schedule: Q04DX003 (ip), vehicle: saline
[18] = endpoint: mean survival time, dose: 200.0 mg/kg/injection, schedule: Q04DX003 (ip), vehicle: saline
[19] = endpoint: mean survival time, dose: 400.0 mg/kg/injection, schedule: Q04DX003 (ip), vehicle: saline

Measured: T/C

O=C(c1ccccc1)C(O)(CC(c1ccccc1)[P+](c1ccccc1)(c1ccccc1)c1ccccc1)c1ccccc1 (centres undefined)
inactive: endpoint: mean survival time, dose: 6.25 mg/kg/injection, schedule: Q01DX001 (ip), vehicle: saline with Tween-80 103 % of control | endpoint: mean survival time, dose: 12.5 mg/kg/injection, schedule: Q01DX001 (ip), vehicle: saline with Tween-80 96 % of control | endpoint: mean survival time, dose: 25.0 mg/kg/injection, schedule: Q01DX001 (ip), vehicle: saline with Tween-80 100 % of control

CS(=O)(=O)OCCOS(C)(=O)=O
inactive: [1] 109 % of control | [2] 104 % of control | [3] 116 % of control | [4] 115 % of control | [5] 111 % of control

CS(=O)(=O)c1cccnn1
inactive: endpoint: mean survival time, dose: 100.0 mg/kg/injection, schedule: Q04DX003 (ip), vehicle: saline sonified 93 % of control | endpoint: mean survival time, dose: 200.0 mg/kg/injection, schedule: Q04DX003 (ip), vehicle: saline sonified 98 % of control | endpoint: mean survival time, dose: 400.0 mg/kg/injection, schedule: Q04DX003 (ip), vehicle: saline sonified 96 % of control

N#Cc1ccccc1NN=NCc1ccccc1
inactive: [6] 97 % of control | [7] 90 % of control

CCOc1ccc(/C=C2N=C(/C=C/c3ccccc3)OC\2=O)cc1
inactive: [8] 91 % of control | [9] 95 % of control | [10] 91 % of control

O=C(N/N=C\c1ccc(Cl)cc1)C(=O)N/N=C\c1ccc(Cl)cc1
inactive: [6] 106 % of control | [11] 92 % of control | [7] 89 % of control

[CH3][Sb]([CH3])([CH3])([O]C(=O)CBr)[O]C(=O)CBr
inactive: [12] 102 % of control | [13] 100 % of control | [14] 96 % of control

CN1c2ccccc2N(C)c2ccccc21
inactive: [1] 94 % of control | [2] 101 % of control | [4] 98 % of control | [5] 96 % of control

CCOC(=O)c1cccc(N(CCOS(C)(=O)=O)CCOS(C)(=O)=O)c1
inactive: endpoint: mean survival time, dose: 2.0 mg/kg/injection, schedule: Q01DX010 (ip), vehicle: saline 100 % of control | endpoint: mean survival time, dose: 4.0 mg/kg/injection, schedule: Q01DX010 (ip), vehicle: saline 106 % of control | endpoint: mean survival time, dose: 8.0 mg/kg/injection, schedule: Q01DX010 (ip), vehicle: saline 119 % of control | endpoint: mean survival time, dose: 16.0 mg/kg/injection, schedule: Q01DX010 (ip), vehicle: saline 121 % of control | endpoint: mean survival time, dose: 50.0 mg/kg/injection, schedule: Q01DX001 (ip), vehicle: saline 98 % of control | [15] 101 % of control | [16] 101 % of control

CCc1nc(-c2ccccc2)c(-c2ccccc2)[nH]1
inactive: [2] 90 % of control | [4] 92 % of control | [5] 90 % of control

CCCCCC(=O)N1CCOCC1
inactive: endpoint: mean survival time, dose: 25.0 mg/kg/injection, schedule: Q04DX003 (ip), vehicle: saline with Tween-80 98 % of control | endpoint: mean survival time, dose: 50.0 mg/kg/injection, schedule: Q04DX003 (ip), vehicle: saline with Tween-80 98 % of control | [2] 104 % of control and 112 % of control | [4] 102 % of control | [5] 100 % of control

CCC(C(=N)C#N)[N+](=O)[O-] (centres undefined)
inactive: endpoint: mean survival time, dose: 100.0 mg/kg/injection, schedule: Q04DX002 (ip), vehicle: saline 91 % of control | endpoint: mean survival time, dose: 200.0 mg/kg/injection, schedule: Q04DX002 (ip), vehicle: saline 95 % of control | endpoint: mean survival time, dose: 400.0 mg/kg/injection, schedule: Q04DX002 (ip), vehicle: saline 91 % of control

COc1cc(/C=N\O)nc(-c2ccccn2)c1
inactive: [15] 107 % of control | [16] 98 % of control | endpoint: mean survival time, dose: 400.0 mg/kg/injection, schedule: Q01DX001 (ip), vehicle: saline 97 % of control

COC12C(COC(N)=O)C3=C(C(=O)C(C)=C(N4CC4C#N)C3=O)N1CC1NC12 (centres undefined)
inactive: endpoint: median survival time, dose: 0.19 mg/kg/injection, schedule: Q01DX001 (ip), vehicle: water 120 % of control | endpoint: median survival time, dose: 0.38 mg/kg/injection, schedule: Q01DX001 (ip), vehicle: water 121 % of control | endpoint: median survival time, dose: 0.75 mg/kg/injection, schedule: Q01DX001 (ip), vehicle: water 123 % of control | endpoint: median survival time, dose: 1.5 mg/kg/injection, schedule: Q01DX001 (ip), vehicle: water 121 % of control

O=C(C(F)(F)F)C(F)(F)F (tested in a mixture with another compound)
inactive: endpoint: mean survival time, dose: 25.0 mg/kg/injection, schedule: Q04DX003 (ip), vehicle: other 100 % of control | endpoint: mean survival time, dose: 50.0 mg/kg/injection, schedule: Q04DX003 (ip), vehicle: other 95 % of control | endpoint: mean survival time, dose: 100.0 mg/kg/injection, schedule: Q04DX003 (ip), vehicle: other 94 % of control | endpoint: mean survival time, dose: 200.0 mg/kg/injection, schedule: Q04DX003 (ip), vehicle: other 92 % of control

Nc1nc2c(nc(NCc3ccccc3)n2C2OC(CO)C(O)C2O)c(=O)[nH]1 (centres undefined)
inactive: endpoint: mean survival time, dose: 6.25 mg/kg/injection, schedule: Q01DX005 (ip), vehicle: distilled water + Tween-80 97 % of control | endpoint: mean survival time, dose: 12.5 mg/kg/injection, schedule: Q01DX005 (ip), vehicle: distilled water + Tween-80 95 % of control | endpoint: mean survival time, dose: 25.0 mg/kg/injection, schedule: Q01DX005 (ip), vehicle: distilled water + Tween-80 95 % of control | endpoint: mean survival time, dose: 50.0 mg/kg/injection, schedule: Q01DX005 (ip), vehicle: distilled water + Tween-80 90 % of control | endpoint: mean survival time, dose: 100.0 mg/kg/injection, schedule: Q01DX005 (ip), vehicle: distilled water + Tween-80 90 % of control

CN(Cc1cnc2nc(N)nc(N)c2n1)c1ccc(C(=O)NC(CCC(=O)NCc2ccccc2)C(=O)O)cc1 (centres undefined)
inactive: endpoint: mean survival time, dose: 5.0 mg/kg/injection, schedule: Q01DX009 (ip), vehicle: sodium bicarbonate 108 % of control | endpoint: mean survival time, dose: 10.0 mg/kg/injection, schedule: Q01DX009 (ip), vehicle: sodium bicarbonate 112 % of control

CC(=O)N1NC2C(=O)N(C3CCCCC3)CC2C1c1ccc(N(C)C)cc1 (centres undefined)
inactive: [6] 100 % of control | [8] 103 % of control | [11] 100 % of control | [9] 100 % of control | [7] 100 % of control | [10] 92 % of control

Cc1c(C=[N+]2CCCCC2)c2ccccc2n1C
inactive: [12] 95 % of control | [13] 95 % of control | [14] 93 % of control | [1] 87 % of control | [8] 100 % of control | [10] 112 % of control

O=S(=O)(Nc1ccc(CCc2ccc(NS(=O)(=O)c3ccccc3)cc2)cc1)c1ccccc1
inactive: [6] 95 % of control | [11] 90 % of control | [7] 92 % of control

O=Cc1c2ccc(Cl)cc2nc2ccc(Cl)cc12
inactive: [2] 101 % of control | [4] 98 % of control | [5] 94 % of control

OC1c2ccccc2-c2ccccc21
inactive: endpoint: mean survival time, dose: 100.0 mg/kg/injection, schedule: Q01DX009 (ip), vehicle: saline 88 % of control | endpoint: mean survival time, dose: 200.0 mg/kg/injection, schedule: Q01DX009 (ip), vehicle: saline 88 % of control | endpoint: mean survival time, dose: 400.0 mg/kg/injection, schedule: Q01DX009 (ip), vehicle: saline 87 % of control

O=C(CCl)c1cccnc1C(=O)O
inactive: [2] 98 % of control

Cc1cc(C)c2c(C#N)cn(-c3ccccc3Cl)c2n1
inactive: [17] 101 % of control | [18] 101 % of control | [19] 97 % of control

CC(=O)Nc1cccc(C[P+](c2ccccc2)(c2ccccc2)c2ccccc2)c1
inactive: [2] 92 % of control | [4] 92 % of control

O=C1C=CC(=O)N1c1ccc(Cl)cc1Br
inactive: endpoint: mean survival time, dose: 5.0 mg/kg/injection, schedule: Q04DX003 (ip), vehicle: saline with Tween-80 95 % of control | endpoint: mean survival time, dose: 10.0 mg/kg/injection, schedule: Q04DX003 (ip), vehicle: saline with Tween-80 89 % of control | endpoint: mean survival time, dose: 20.0 mg/kg/injection, schedule: Q04DX003 (ip), vehicle: saline with Tween-80 92 % of control

O=N/C=C/C(=N/Nc1ccc(C(=O)O)cc1)[N+](=O)[O-]
inactive: [17] 96 % of control | [18] 96 % of control | [19] 90 % of control

COC1=CCC2=C(C1)C1(C)CCCC(C)(CO)C1CC2 (centres undefined)
inactive: [2] 94 % of control | [4] 92 % of control | [5] 97 % of control

O=C(OC1COC(OC(=O)c2ccccc2)C(OC(=O)c2ccccc2)C1OC(=O)c1ccccc1)c1ccccc1 (centres undefined)
inactive: [1] 97 % of control | [2] 101 % of control | [3] 95 % of control | [4] 86 % of control | endpoint: mean survival time, dose: 400.0 mg/kg/injection, schedule: Q01DX009 (ip), vehicle: saline with Tween-80 97 % of control | [5] 95 % of control
